Data: patent US8846669B2, “Oxazolidinone derivative and medical composition containing same” (Legochem Biosciences, Inc., priority 2011, dated 2014)
Converted amounts (≈) assume the structure as drawn. Read-outs that look alike come from different tables or passages of the source.

Key:
Test in all cases: In vitro antibacterial activity, broth microdilution MIC90
Type in all cases: cell-based
[1] = tested on: Linezolid and Vancomycin Resistant Enterococcus faecium (strain 11); details: Enterococcus faecium
Experimental: (§1) MIC90 was measured by broth microdilution method based on CLSI standards [reference: Clinical and Laboratory Standards Institute Document. (2000) Methods for Dilution Antimicrobial Susceptibility Test for Bacteria that Grow Aerobically-Fifth Edition: M7-A5. CLSI, Villanova, Pa.].
(§2) Activities of 12 strains including Staphylococcus aureus, Methicillin Resistant Staphylococcus aureus, Staphylococcus epidermidis, Methicillin Resistant Staphylococcus epidermidis, Enterococcus faecalis, Vancomycin Resistant Enterococcus faecalis, Linezolid and Vancomycin Resistant Enterococcus faecalis, Enterococcus faecium, Vancomycin Resistant Enterococcus faecium, Linezolid and Vancomycin Resistant Enterococcus faecium, and Moraxella catarrhalis, were measured, and results are shown in Table 1 below.
(§3) The final concentration of test material in the antibacterial test was from 0.063 μg/mL (minimum) to 128 μg/mL (maximum), and the final concentration of DMSO used as an excipient was 2.5% (V/V). Linezolid represented by Formula B below (manufactured by Pfizer) was used as a control and bacterial activity thereof was compared with those of the test materials.

[2] = tested on: Staphylococcus aureus; details: Staphylococcus aureus
Experimental: as §1, §2, §3

[3] = tested on: Vancomycin Resistant Enterococcus faecalis; details: Enterococcus faecalis
Experimental: as §1, §2, §3

[4] = tested on: Methicillin Resistant Staphylococcus aureus; details: Staphylococcus aureus
Experimental: as §1, §2, §3

[5] = tested on: Linezolid and Vancomycin Resistant Enterococcus faecalis; details: for MIC90: Enterococcus faecalis
Experimental: as §1, §2, §3

[6] = tested on: Enterococcus faecalis; details: Enterococcus faecalis
Experimental: as §1, §2, §3

[7] = tested on: Methicillin Resistant Staphylococcus epidermidis; details: Staphylococcus epidermidis
Experimental: as §1, §2, §3

[8] = tested on: Enterococcus faecium; details: Enterococcus faecium
Experimental: as §1, §2, §3

[9] = tested on: Staphylococcus epidermidis; details: Staphylococcus epidermidis
Experimental: as §1, §2, §3

[10] = tested on: Vancomycin Resistant Enterococcus faecium; details: Enterococcus faecium
Experimental: as §1, §2, §3

[11] = tested on: Linezolid and Vancomycin Resistant Enterococcus faecium (strain 10); details: Enterococcus faecium
Experimental: as §1, §2, §3

[12] = tested on: Moraxella catarrhalis; details: Moraxella catarrhalis
Experimental: as §1, §2, §3

Structure (SMILES)	MIC90 [1]	MIC90 [2]	MIC90 [3]	MIC90 [4]	MIC90 [5]	MIC90 [6]	MIC90 [7]	MIC90 [8]	MIC90 [9]	MIC90 [10]	MIC90 [11]	MIC90 [12]	also measured
CC(=O)NC[C@H]1CN(c2ccc(-c3ccc(N4C=NN(CC(=O)OC(C)(C)C)CC4)nc3)c(F)c2)C(=O)O1 [Compound 9]	8 µg/mL (≈ 15.2 µM)	1 µg/mL (≈ 1.9 µM)	2 µg/mL (≈ 3.8 µM)	4 µg/mL (≈ 7.6 µM)	8 µg/mL (≈ 15.2 µM)	1 µg/mL (≈ 1.9 µM)	4 µg/mL (≈ 7.6 µM)	2 µg/mL (≈ 3.8 µM)	1 µg/mL (≈ 1.9 µM)	2 µg/mL (≈ 3.8 µM)	8 µg/mL (≈ 15.2 µM)		
CC(=O)NC[C@H]1CN(c2ccc(-c3ccc(N4C=NN(CC(=O)O)CC4)nc3)c(F)c2)C(=O)O1 [Compound 10]	8 µg/mL (≈ 17 µM)	1 µg/mL (≈ 2.13 µM)	2 µg/mL (≈ 4.25 µM)	2 µg/mL (≈ 4.25 µM)	8 µg/mL (≈ 17 µM)	1 µg/mL (≈ 2.13 µM)	2 µg/mL (≈ 4.25 µM)	1 µg/mL (≈ 2.13 µM)	1 µg/mL (≈ 2.13 µM)	2 µg/mL (≈ 4.25 µM)	8 µg/mL (≈ 17 µM)		
CC(=O)NC[C@H]1CN(c2ccc(-c3ccc(N4C=NN(C(=O)CO)CC4)nc3)c(F)c2)C(=O)O1 [Compound 11]	1 µg/mL (≈ 2.13 µM)	0.063 µg/mL (≈ 0.134 µM)	0.125 µg/mL (≈ 0.266 µM)	0.25 µg/mL (≈ 0.531 µM)	0.5 µg/mL (≈ 1.06 µM)	0.125 µg/mL (≈ 0.266 µM)	0.25 µg/mL (≈ 0.531 µM)	0.063 µg/mL (≈ 0.134 µM)	0.063 µg/mL (≈ 0.134 µM)	0.125 µg/mL (≈ 0.266 µM)	0.5 µg/mL (≈ 1.06 µM)	1 µg/mL (≈ 2.13 µM)	antibacterial activity against linezolid-resistant bacteria (in words) ([5]; Enterococcus faecalis and Enterococcus faecium which are resistant to linezolid): very high antibacterial activity
CC(=O)NC[C@H]1CN(c2ccc(-c3ccc(N4C=NN(C(=O)COC(C)=O)CC4)nc3)c(F)c2)C(=O)O1 [Compound 12]	1 µg/mL (≈ 1.95 µM)	0.125 µg/mL (≈ 0.244 µM)	0.25 µg/mL (≈ 0.488 µM)	0.25 µg/mL (≈ 0.488 µM)	1 µg/mL (≈ 1.95 µM)	0.125 µg/mL (≈ 0.244 µM)	0.25 µg/mL (≈ 0.488 µM)	0.063 µg/mL (≈ 0.123 µM)	0.125 µg/mL (≈ 0.244 µM)	0.25 µg/mL (≈ 0.488 µM)	1 µg/mL (≈ 1.95 µM)	0.5 µg/mL (≈ 0.976 µM)	
CC(=O)NC[C@H]1CN(c2ccc(-c3ccc(N4C=NN(C(=O)COC(=O)CCC(=O)O)CC4)nc3)c(F)c2)C(=O)O1 [Compound 13]													MIC90 ([1]; strain 11, E. faecium VanA LR, read-out: MIC90): 2 µg/mL (≈ 3.51 µM); MIC90 ([2]; strain 1, S. aureus, read-out: MIC90): 1 µg/mL (≈ 1.75 µM); MIC90 ([3]; strain 6, E. faecalis VanA, read-out: MIC90): 1 µg/mL (≈ 1.75 µM); MIC90 ([4]; strain 2, S. aureus MR, read-out: MIC90): 2 µg/mL (≈ 3.51 µM); MIC90 ([5]; strain 7, E. faecalis VanA LR, read-out: MIC90): 2 µg/mL (≈ 3.51 µM); MIC90 ([6]; strain 5, E. faecalis, read-out: MIC90): 1 µg/mL (≈ 1.75 µM); MIC90 ([7]; strain 4, S. epidermidis MR, read-out: MIC90): 2 µg/mL (≈ 3.51 µM); MIC90 ([12]; strain 12, M. catarrhalis, read-out: MIC90): 2 µg/mL (≈ 3.51 µM); MIC90 ([8]; strain 8, E. faecium, read-out: MIC90): 2 µg/mL (≈ 3.51 µM); MIC90 ([9]; strain 3, S. epidermidis, read-out: MIC90): 1 µg/mL (≈ 1.75 µM); MIC90 ([10]; strain 9, E. faecium VanA, read-out: MIC90): 1 µg/mL (≈ 1.75 µM); MIC90 ([11]; strain 10, E. faecium VanA LR, read-out: MIC90): 2 µg/mL (≈ 3.51 µM)
CNC(=O)N1CCN(c2ccc(-c3ccc(N4C[C@H](CNC(C)=O)OC4=O)cc3F)cn2)C=N1 [Compound 16]	2 µg/mL (≈ 4.26 µM)	0.25 µg/mL (≈ 0.533 µM)	0.5 µg/mL (≈ 1.07 µM)	1 µg/mL (≈ 2.13 µM)	1 µg/mL (≈ 2.13 µM)	0.25 µg/mL (≈ 0.533 µM)	1 µg/mL (≈ 2.13 µM)	0.5 µg/mL (≈ 1.07 µM)	0.25 µg/mL (≈ 0.533 µM)	0.5 µg/mL (≈ 1.07 µM)	2 µg/mL (≈ 4.26 µM)	2 µg/mL (≈ 4.26 µM)	
CC(=O)NC[C@H]1CN(c2ccc(-c3ccc(N4C=NN(C(N)=O)CC4)nc3)c(F)c2)C(=O)O1 [Compound 17]	2 µg/mL (≈ 4.39 µM)	0.125 µg/mL (≈ 0.274 µM)	0.25 µg/mL (≈ 0.549 µM)	0.5 µg/mL (≈ 1.1 µM)	1 µg/mL (≈ 2.2 µM)	0.25 µg/mL (≈ 0.549 µM)	0.5 µg/mL (≈ 1.1 µM)	0.25 µg/mL (≈ 0.549 µM)	0.25 µg/mL (≈ 0.549 µM)	0.25 µg/mL (≈ 0.549 µM)	2 µg/mL (≈ 4.39 µM)	2 µg/mL (≈ 4.39 µM)	
CC(=O)NC[C@H]1CN(c2ccc(-c3ccc(N4C=NN(C(=O)CN)CC4)nc3)c(F)c2)C(=O)O1 [Compound 19]	2 µg/mL (≈ 4.26 µM)	0.25 µg/mL (≈ 0.533 µM)	0.5 µg/mL (≈ 1.07 µM)	0.5 µg/mL (≈ 1.07 µM)	2 µg/mL (≈ 4.26 µM)	0.5 µg/mL (≈ 1.07 µM)	0.5 µg/mL (≈ 1.07 µM)	0.25 µg/mL (≈ 0.533 µM)	0.25 µg/mL (≈ 0.533 µM)	0.5 µg/mL (≈ 1.07 µM)	2 µg/mL (≈ 4.26 µM)	1 µg/mL (≈ 2.13 µM)	
C#CCN1C=NN(c2ccc(-c3ccc(N4C[C@H](CNC(C)=O)OC4=O)cc3F)cn2)CC1 [Compound 55]	4 µg/mL (≈ 8.88 µM)	1 µg/mL (≈ 2.22 µM)	2 µg/mL (≈ 4.44 µM)	4 µg/mL (≈ 8.88 µM)	4 µg/mL (≈ 8.88 µM)	1 µg/mL (≈ 2.22 µM)	4 µg/mL (≈ 8.88 µM)	2 µg/mL (≈ 4.44 µM)	2 µg/mL (≈ 4.44 µM)	2 µg/mL (≈ 4.44 µM)	4 µg/mL (≈ 8.88 µM)		
